Literature values, collected in patent US11497742B1, “Pharmaceutical composition for the treatment of Covid-19 infection” (priority 2021, dated 2022).

Tests used:
[1] = test system: SARS-CoV-2 infection; conditions: interim analysis, 775 patients, oral
[2] = biological target: COVID-19 Mpro (Severe acute respiratory syndrome coronavirus 2, UniProt P0DTD1); conditions: Hussein and Elkhair 2021

Row | Compound | reduced the risk of hospitalization or death [1] | inhibition of COVID-19 Mpro (molecular docking, low binding energies) [2]
1 | CC(C)C(=O)OC[C@H]1O[C@@H](n2ccc(NO)nc2=O)[C@H](O)[C@@H]1O [Molnupiravir] | approximately 50% | 
2 | Zn(CQ)Cl2H2O |  | potent inhibitors
3 | Zn(HCQ)Cl2H2O |  | potent inhibitors
